Measured values reported in patent US20220323406A1, “METHODS AND COMPOSITIONS FOR DIFFERENTIATING STEM CELLS” (Massachusetts Institute of Technology, priority 2019, published 2022).

Columns and labels:
[1] = system: lysozyme (LYZ) in intestinal organoids; experiment: Western blotting of lysozyme in 3D-cultured intestinal organoids; format: cell-based, mouse; details: ENR+CV, ENR+CD or ENR, 6 days
Description: Western blotting. ISC-enriched organoids cultured in 3D Matrigel with ENRCV media were passaged to 24-well plate in 3D Matrigel with ENRCV. At day zero, media were replaced to ENR or ENRCD with or without indicated compounds, and media were replaced every other day. At day six, cells were harvested from Matrigel by mechanical disruption and suspended in basal media. Cell pellets were lysed with Pierce® IP lysis buffer (ThermoFisher, 87787) containing Halt™ Protease Inhibitor Cocktail, EDTA-Free (ThermoFisher, 87785) after 3-minute centrifuge at 300×g at 4° C. Cell extracts were resolved by NuPAGE® SDS-PAGE Gel system (ThermoFisher) and electroblotted onto polyvinylidene difluoride membranes using Criterion™ Blotter (Biorad). The membranes were blocked with 2% Blotting-Grade Blocker (Biorad, 1706404) in TBS-T (50 mM Tris-HCl, 150 mM NaCl, and 0.1% Tween 20, pH 8.0) and then probed with appropriate antibodies. Detection was performed using ECL Select™ Western Blotting Detection Reagent (Amersham, 45-000-999) and ImageQuant LAS4000 (GE Healthcare).
Western blotting. Organoid-containing gel was homogenized in basal medium and centrifuged at 300 rcf for 3 min. Organoid pellet was lysed with ice-cold Pierce IP Lysis Buffer (Thermo Fisher Scientific, #87787) containing Halt Protease Inhibitor Cocktail, EDTA-Free (Thermo Fisher Scientific, #87785) and incubated on ice for 20 min. The lysate was centrifuged at 17,000 rcf for 10 min, and the supernatant was combined with NuPAGE LDS Sample Buffer (Thermo Fisher Scientific, NP0007). Protein concentration was determined by Pierce 660 nm Protein Assay (Thermo Fisher Scientific, #22660) and normalized to the lowest concentration among each sample set. […] Chemiluminescent signals were detected by LAS4000 (GE Healthcare) using Amersham ECL Select Western Blotting Detection Reagent (GE Healthcare, #45-000-999), and total protein signals were obtained by Odyssey Imaging System (LI-COR Biosciences) using REVERT Total Protein Stain Kit (LI-COR Biosciences, #926-11010).

[2] = system: small intestine crypts (Paneth, stem, goblet cells); experiment: Animal study: histological quantification of Paneth, Olfm4+ stem and PAS+ goblet cells per crypt; format: in vivo, mouse; details: every other day, day 14
Procedure: Following a similar protocol as previously reported for SINE treatment in the context of cancer (Arango et al., 2017; […] Zheng et al., 2014), KPT-330 was administered at a dose 10 mg/kg via oral gavage every other day over a two-week span in C57BL/6 wild-type mice, and body weight was monitored for any clear toxicity. […] Applicants tracked animal weight every other day, and at day 14 collected the proximal and distal thirds of the small intestine for histological quantification of Paneth, stem, and goblet populations (FIG. 26A). […] Samples were prepared for histology by the ‘swiss-roll’ technique, and following staining, were blinded and randomized before manual counting of well-preserved features. […] Applicants additionally quantified the abundance of Olfm4+ stem cells as well as PAS+ goblet cells within the same animals to ascertain whether the effect of SINE treatment was restricted to the Paneth cell compartment (representative images FIG. 30D,E). […] Animal study. 8-10 weeks old wild type C57BL/6NCrl male mice (#027) were purchased from Charles River. Mice were housed under 12 h light/dark cycle and provided food and water ad libitum. 0.01, 0.05, 0.2 or 10 mg/kg of KPT-330 were injected orally using a disposable gavage needle (Cadence Science, #9921) at 10 μL/g weight. KPT-330 was dissolved in DMSO initially and further diluted in sterile PBS containing Pluronic F-68 Non-ionic Surfactant (Gibco, #24040032) and Polyvinylpyrrolidone (PVP, Alfa Aesar, A14315, average M.W. 58,000); the final concentration of DMSO is 2%, Pluronic is 0.5%, and PVP is 0.5%. KPT-330 was administered every other day for two weeks, 7 injections in total (days 0, 2, 4, 6, 8, 10, 12), and mice were sacrificed at day 14. All animal studies are approved by the Committee on Animal Care (CAC) at Massachusetts Institute of Technology. Histology. The small intestine (SI) was collected from mice and divided into three parts. Only proximal and distal SI were kept in PBS, and medial SI was discarded. Each SI was opened longitudinally and washed in PBS. […] Fixed tissues were embedded in paraffin, and 4 μm sections were mounted on slides. For immunohistochemistry, slides were deparaffinized, antigen retrieved using heat-induced epitope retrieval at 97° C. for 20 min using citrate buffer pH 6, and probed with appropriate antibodies followed by DAB staining. For McManus Periodic Acid Schiff (PAS) reaction, slides were deparaffinized, oxidized in periodic acid, and stained with Schiff reagent (Poly Scientific, s272) followed by counterstaining with Harris Hematoxylin. Slides were scanned by Aperio Slide Scanner (Leica) and cells were counted on Aperio eSlide Manager. Slides were randomized before counting, and all cell types were counted in all well-preserved crypts along the longitudinal crypt-villus axis.

Structure (SMILES): O=C(/C=C\n1cnc(-c2cc(C(F)(F)F)cc(C(F)(F)F)c2)n1)NNc1cnccn1 [KPT-330]
- LYZ abundance per-mass protein (Western blot) [1]: appreciably increase LYZ abundance
- Olfm4+ stem cells, distal small intestine ([2]; 0.01 mg/kg oral): significant increase in Olfm4+ stem cells
- Paneth cells per crypt, distal small intestine ([2]; 0.01 mg/kg oral): significant increases in Paneth abundance
- Paneth cells per crypt, proximal small intestine ([2]; 0.01 mg/kg oral): significant increases in Paneth abundance
- Paneth cells per crypt, proximal small intestine ([2]; 0.2 mg/kg oral): significant increases in Paneth abundance
- PAS+ goblet cell population ([2]; 0.01-0.2 mg/kg oral): did not overserve any significant changes
